From US6492333B1, “Treatment of myeloma bone disease with proteasomal and NF-κB activity inhibitors” (Osteoscreen, Inc., priority 1999, dated 2002)
Where a SMILES comes first, the peptide text is derived from it. The star is where a group is joined. Cbz = O=C(OCc1ccccc1)*; OtBu = CC(C)(C)O*

Key:
U266BL cells = assay: Viability of myeloma cells by trypan blue dye-exclusion assay (U266BL); type: cell-based, human; details: 24 hours
Experimental: (§1) In another experiment, the direct effect of the proteasomal inhibitor PSI and other NF-kB inhibitors on the viability in human myeloma cells and 5TGM-1 cells in vitro was evaluated.
(§2) 1×10^6 human myeloma (IM9 and U266BL) cells or 5TGM-1 cells were plated out in the presence and/or absence of PSI and other NF-κB inhibitors. After 24 hours, the viability of the myeloma cells was assessed by the trypan blue dye-exclusion assay. These compounds, at low (submicromolar) concentrations, markedly decrease the viability of both human and murine myeloma cells in culture.

human myeloma IM-9 cells = assay: Viability of myeloma cells by trypan blue dye-exclusion assay (IM-9); type: cell-based; details: 24 hours
Experimental: as §1, §2

[1] = system: 5TGM-1 cultured myeloma cells; assay: PSI injected into subcutaneous 5TGM-1 myeloma tumors in mice; type: in vivo, C57BL/KaLwRij mice
Experimental: Nine (9) C57BL/KaLwRij mice were inoculated with 0.5×10^6 5TGM-1 cultured myeloma cells which were injected subcutaneously over the flank.
One group had PSI injected directly into the tumors (˜5 mg/kg/day) and the other group had only vehicle injected into the tumors.

[2] = system: 5TGM-1 cultured myeloma cells; assay: Hind-limb paralysis after intravenous 5TGM-1 myeloma cell inoculation; type: in vivo, C57BL/KaLwRij mice; details: PSI 5 mg/kg/day subcutaneously for 28 days; untreated mice all paralysed by at least day 27
Experimental: Ten (10) C57BL/KaLwRij mice were inoculated intravenously with 1×10^6 5TGM-1 cultured myeloma cells. When untreated, the mice invariably develop hind-limb paralysis after 26-30 days.
One group of five (5) mice were injected with PSI (5 mg/kg/day) subcutaneously over their flank portion for 28 days and the other group received only vehicle. […] All of the untreated mice had developed hind-limb paralysis by at least day 27. In contrast, none of the PSI-treated group developed paraplegia before at least day 33.

5TGM1 cells = assay: Viability of myeloma cells by trypan blue dye-exclusion assay (5TGM-1); type: cell-based, murine; details: 100 nM, 24 hours
Experimental: as §1, §2

5TGM-1 cells = assay: Serum tumor marker IgG2b in mice inoculated intravenously with 5TGM-1 cells; type: in vivo, C57BL/KwLaRij mice; details: PSI 5 mg/kg/day subcutaneously; sera on days 0, 7, 14 and 18
Experimental: Eight (8) C57BL/KwLaRij mice were each injected with 1×10^6 5TGM-1 cells through the tail vein. They were then randomized into two groups, one group dosed with PSI (5 mg/kg/day subcutaneously) and the other group (untreated control) received only vehicle. Sera were obtained at the start (day 0) and on days 7, 14 and 18 followed by assay for IgG2b.

[3] = relative to MG-132, MG-115 and MG-341

In the case of `S=C(S)N1CCCC1` [PDTC, 1-pyrrolidine carbothiotic acid], the viability (U266BL cells; 0.1 μM) is reported as “less than 40%”.
With `O=C(NC1=CC(=O)c2ccccc2C1=O)c1ccccc1` [PPM-18] the effect on viability (human myeloma IM-9 cells; concentration not given) was “relatively ineffective” and the “effect on viability as compared to control” value (U266BL cells; concentration not given) was “does not appear to affect viability appreciatively”.
In the case of `CC[C@H](C)[C@H](NC(=O)OCc1ccccc1)C(=O)N[C@@H](CCC(=O)OC(C)(C)C)C(=O)N[C@@H](C)C(=O)N[C@H](C=O)CC(C)C` [PSI, N-carbobenzoyl-Ile-Glu-(OtBu)-Ala-Leu-CHO] (Cbz-IE(OtBu)AL-aldehyde), the “survival and signs of tumor” value ([1]; 4 months after treatment, PSI ~5 mg/kg/day intratumoral) is reported as “alive and well with no signs of tumor”, the “size of the tumors” value ([1]; PSI ~5 mg/kg/day injected directly into subcutaneous tumors, treatment commenced on day 35) is reported as “decreased markedly” and the “health of treated mice” value ([1]; up until 3 months after tumor inoculation, even though treatment was discontinued, PSI ~5 mg/kg/day intratumoral) is reported as “remained healthy”. For the same compound, the “time at which hind-limb paralysis (paraplegia) developed” value [2] was ≥ 33 days, the viability (human myeloma IM-9 cells; 0.01 μM) was “marked diminution in viability” and the viability (U266BL cells; 0.01 μM) was “less than 20%”. The viability (5TGM1 cells) was ~0% and the “tumor marker IgG2b in sera” value (5TGM-1 cells) was “markedly reduced”.
With `C=C(C)[C@]12C[C@@H](C)[C@@]34O[C@](Cc5ccccc5)(O[C@@H]1[C@@H]3C=C(COC(=O)Cc1ccc(O)c(OC)c1)C[C@]1(O)C(=O)C(C)=C[C@@H]41)O2` [resiniferatoxin] the “activity in the ABA assay” value [3] was “less active”.
